Results from patent US20230151434A1, “REAWAKENING OF DORMANT TUMOR CELLS BY MODIFIED LIPIDS DERIVED FROM STRESS ACTIVATED NEUTROPHILS” (The Wistar Institute of Anatomy and Biology, priority 2020, published 2023).

Legend:
PMN [1] = assay: S100A8/A9 release by PMN measured by ELISA; assay type: cell-based, mouse; conditions: PMN treated with NE with or without ICI-118,551
Method: PMN or PMN-MDSC were isolated from spleen of tumor-free mice or LLC tumor-bearing mice, respectively. A total of 5×10^5 LLC cells were injected into the right flank of mice, and spleens were harvested when tumors reached 200 mm^2. Spleens were mechanically dissociated. Red blood cells were lysed with ACK buffer cells. Splenocytes were stained with mouse biotin-conjugated Ly6G antibody (Miltenyi Biotec) followed by biotin microbeads. Ly6G+ cells were purified by magnetic separation with MACS column for magnetic cell isolation, according to the manufacturer's instructions (Miltenyi Biotec).
One hundred microliters of mouse peripheral blood was collected from facial vein. NE was measured by a mouse NE ELISA Kit (Novus Biologicals). S100A8/A9 was measured by Mouse S100A8/S100A9 Heterodimer DuoSet ELISA (R&D Systems). S100A8/A9 concentrations in human serum samples were determined by using a double-sandwich ELISA system as previously described (64), which is different from commercial ELISA kits. Human NE was measured using an ELISA kit (Abnova).

[2] = tested on: A549^cisA and OVCAR3^cisA cells; assay: In vitro co-culture of chemotherapy-arrested human tumor cells with human PMN; assay type: cell-based; conditions: PMN and NE plus ICI-118,551
Method: The KPr cell line (16) was maintained in RPMI 1640 medium (Corning) and 10% FBS (Gibco). Treatment of KPr cells with 250 nM 4-hydroxytamoxifen (4-OHT, Sigma-Aldrich) induced p53 expression. p53-induced cells (KPr^p53) were stained with CellTrace dye for 20 min at 37° C. according to the manufacturer's instructions (Life Technologies) and seeded at 8500 cells/cm^2 in culture in a T175 tissue culture-treated flask (Gibco). After 7 days, cells were detached and sorted based on the CellTrace dye intensity as proliferating (KPr^p53P, with lower CellTrace) and arrested cells (KPr^p53A, with higher-intensity CellTrace; see FIG. 1A for representative image). LL2 cells were seeded at 1000 cells/cm2 and treated for 3 days with 2.5 μM cisplatin (Selleckchem). After that, cells were stained with CellTrace and sorted as described above. OVCAR3 cell senescence was induced by treating 5×10^4 cells/cm2 with 0.5 μM cisplatin for 72 hours. After that time, cells were stained with CellTrace and sorted. A549 senescence was induced by 72-hour treatment with 4 μM cisplatin and cells were sorted after staining with CellTrace. Time points for sorting were chosen as the best to observe separation between arrested and proliferating cells. Cells were sorted on Astrios (Beckman Coulter) or Melody (Becton Dickinson) fluorescence-activated cell sorters.
Arrested tumor cells were plated at 100 cells/cm^2 in a 48-well tissue culture-treated plate (Costar) for coculture experiments. After 24 hours, PMN-MDSC or PMN were added at indicated ratios. Cocultures were maintained for 48 hours in RPMI 1640+10% FBS in the presence of mouse recombinant GM-CSF (10 ng/ml; Rocky Hill) to ensure neutrophil viability. All control conditions were in the presence of media with GM-CSF. All indicated supplements (NE, S100A8/A9, BGJ398, ICI 118-551, IL-2, MPO inhibitor, LPS, lipids, PMA, and thapsigargin 1 μM) were added to culture at the same time as PMN and maintained for 48 hours. After that, media were removed and replaced by fresh media without GM-CSF. After 1 week, GFP^+ cells in wells were counted via an inverted microscope. When lipid extracts were used, lipids were added to dormant cells in culture at 1 to 0.05 or 0.01 nmol as indicated in each experiment.

MPO = MPO activity in neutrophils; assay type: cell-based, mouse; conditions: S100A8/A9 5 μg/ml or LPS 2 μg/ml
Method: Neutrophils were isolated from tumor-free mice as described above, and MPO activity was measured with an MPO Fluorometric Activity Assay Kit (Sigma-Aldrich) using a VICTOR spectrophotometer (PerkinElmer).

PMN [3] = assay: ROS production in PMN (DCFDA, flow cytometry); assay type: cell-based, mouse
From the text: FIG. 14A-FIG. 14B show the effect of S100A9 on PMN activity. (FIG. 14A) DCFDA measured by flow cytometry in PMN treated with S100A8/A9 or NE. Each dot represents an individual mouse. Mean±SEM are shown. (FIG. 14B) qRT-PCR of Ptges, Ptgs2, and Arg1 expression in mouse PMN treated with S100A8/A9 or NE. Each dot represents an individual mouse. Mean±SEM are shown.

Row | Molecule | NE-mediated secretion of S100A8/A9 by PMN (PMN [1]) | NE- and PMN-induced reactivation of dormant human tumor cells, effect of β-blocker [2] | MPO enzymatic activity in PMN (MPO) | ROS production in PMN (PMN [3])
1 | Cc1ccc(OCC(O)C(C)NC(C)C)c2c1CCC2 (stereo not shown) [ICI-118,551] | abrogated the NE-mediated secretion of S100A8/A9 by PMN | this effect was abrogated | – | –
2 | S100A8/A9: recombinant S100A8/A9, heterocomplex of two S100 calcium binding proteins (calprotectin) (protein, UniProt P27005 2-89; P31725 2-113, looked up) Protein S100-A8: PSELEKALSNLIDVYHNYSNIQGNHHALYKNDFKKMVTTECPQFVQNINIENLFRELDINSDNAINFEEFLAMVIKVGVASHKDSHKE Protein S100-A9: ANKAPSQMERSITTIIDTFHQYSRKEGHPDTLSKKEFRQMVEAQLATFMKKEKRNEALINDIMEDLDTNQDNQLSFEECMMLMAKLIFACHEKLHENNPRGHGHSHGKGCGK | – | – | activated MPO in PMN | no effect on ROS production
